{"source": "patent US20260256789A1", "about": "“METHODS FOR TREATMENT OF CANCER” (Frontier Medicines Corporation, priority 2022, published 2026)", "data": [{"biological_target": "T1, KRAS G12C (GMPPNP-loaded) and cRAF Ras-binding domain (Homo sapiens, UniProt P01116, C118S/C51S/C80L/G12C)", "T1 construct": "truncated version comprising amino acids 1-169", "T1 sequence (P01116 1-169 isoform P01116-2 G12C/C51S/C80L/C118S)": "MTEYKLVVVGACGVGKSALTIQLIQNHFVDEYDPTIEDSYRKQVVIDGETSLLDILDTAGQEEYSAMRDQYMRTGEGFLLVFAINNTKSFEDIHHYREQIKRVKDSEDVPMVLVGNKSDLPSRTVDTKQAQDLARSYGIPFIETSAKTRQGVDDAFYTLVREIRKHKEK", "assay": "Inhibition of KRAS G12C and cRAF binding (AlphaScreen)", "conditions": "KRAS G12C preloaded with GTP analogue GMPPNP, 2 hours preincubation", "summary_of_the_method": "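AlphaScreen used biotin-AviTag KRAS G12C (Cys-light, aa 1-169; 0.5 nM), GMPPNP-loaded, preincubated 2 h with compound (top 50 μM, 1:3, 10 points, 2% DMSO) in pH 7.4 Hepes buffer with 10 μM GMPPNP. GST-cRAF RBD (aa 50-131; 0.75 nM) plus beads were then added for 60-90 min at room temperature, and IC50 came from a 4-parameter fit.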", "units": {"IC50": "nM"}, "values": [{"molecule": "Cc1noc(/C=C/C(=O)N2CC[C@@H](N(C)c3nc(OC[C@@]45CCCN4C[C@H](F)C5)nc4c(F)c(-c5nc(N)cc(C)c5C(F)(F)F)ncc34)C2)n1", "note": "[Example 55, (E)-1-((R)-3-((7-(6-amino-4-methyl-3-(trifluoromethyl)pyridin-2-yl)-8-fluoro-2-(((2R,7aS)-2-fluorotetrahydro-1H-pyrrolizin-7a(5H)-yl)methoxy)pyrido[4,3-d]pyrimidin-4-yl)(methyl)amino)pyrrolidin-1-yl)-3-(3-methyl-1,2,4-oxadiazol-5-yl)prop-2-en-1-one]", "IC50": "< 10"}, {"molecule": "C=CC(=O)N1CC[C@@H](N(C)c2nc(OC[C@@]34CCCN3C[C@H](F)C4)nc3c(F)c(-c4cnn5cccc(F)c45)ncc23)C1", "note": "[Example 212]", "IC50": "≥ 500"}, {"molecule": "CN(c1nc(OC[C@@]23CCCN2C[C@H](F)C3)nc2c(F)c(-c3nc(N)cc4cccc(Cl)c34)ncc12)[C@@H]1CCN(C(=O)/C=C/c2nc(C(C)(C)O)no2)C1", "note": "[Example 93]", "IC50": "< 10"}, {"molecule": "C=CC(=O)N1CCC(N(C)c2nc(OC[C@@]34CCCN3C[C@H](F)C4)nc3c(F)c(-c4n[nH]c5cccc(Cl)c45)ncc23)C1", "note": "(stereo partly drawn) [Example 224]", "IC50": "≥ 500"}, {"molecule": "Cc1cc(N)nc(N2CCc3c(nc(OC[C@@]45CCCN4C[C@H](F)C5)nc3N(C)[C@@H]3CCN(C(=O)/C=C/c4nc(C(C)C)no4)C3)C2)c1C(F)(F)F", "note": "[Example 147, (E)-1-((R)-3-((7-(6-amino-4-methyl-3-(trifluoromethyl)pyridin-2-yl)-2-(((2R,7aS)-2-fluorotetrahydro-1H-pyrrolizin-7a(5H)-yl)methoxy)-5,6,7,8-tetrahydropyrido[3,4-d]pyrimidin-4-yl)(methyl)amino)pyrrolidin-1-yl)-3-(3-isopropyl-1,2,4-oxadiazol-5-yl)prop-2-en-1-one]", "IC50": "≥ 500"}, {"molecule": "CC(C)c1noc(/C=C/C(=O)N2CC[C@@H](N(C)c3nc(OC[C@@]45CCCN4C[C@H](F)C5)nc4c(F)c(-c5nc(N)cc6cccc(Cl)c56)ncc34)C2)n1", "note": "[Example 60, (E)-1-((R)-3-((7-(3-amino-8-chloroisoquinolin-1-yl)-8-fluoro-2-(((2R,7aS)-2-fluorohexahydro-1H-pyrrolizin-7a-yl)methoxy)pyrido[4,3-d]pyrimidin-4-yl)(methyl)amino)pyrrolidin-1-yl)-3-(3-isopropyl-1,2,4-oxadiazol-5-yl)prop-2-en-1-one]", "IC50": "< 10"}]}]}
